Experiments:
[1] = tested on: patients with diabetic polyneuropathy; experiment: Anecdotal reports in patients with diabetic polyneuropathy after single doses of sildenafil; assay type: in vivo, human; details: single doses of 50 mg
[2] = tested on: men demonstrating positive symptoms of diabetic neuropathy; experiment: Clinical trial of sildenafil versus placebo (crossover) with pain assessments (PDI, VAS Pain Score, Verbal Evaluation of Pain Relief); assay type: in vivo, human; details: 50 mg every night for 10 days, pain assessed by PDI, VAS Pain Score and Verbal Evaluation of Pain Relief
Method: The study was conducted using sidenafil, however it will be appreciated that the study may be conducted with other cGMP PDE5 inhibitors, for example one or more of the preferred cGMP PDE5 inhibitors listed hereinabove.
The patients then underwent a 7-day treatment-free phase in order to establish baseline data, including a series of pain assessments comprising determining the Pain Disability Index (PDI) (adapted from Tait et al 1990), the Visual Analogue Scale (VAS) Pain Score, and the Verbal Evaluation of Pain Relief. They were then treated with either sildenafil (50 mg) or placebo every night for 10 days and immediately after this period the patient's degree of pain was reassessed. A washout period of 10 days followed where the patients received no treatment. […] Immediately after this period the patient's degree of pain was assessed.
Pain Disability Index (PDI) is determined by patient questionnaire, and measures the overall impact of pain (on a scale of 0 to 10) associated with normal daily activities, (i.e. family/home responsibilities, recreation, social activity, occupation, self-care, sleeping). […]
Visual Analogue Scale (VAS) Pain Score is determined by the patient indicating on a continuous line from 0 (=no pain) to 100 (=pain as bad as it could be) the average level of a pain experienced during the assessment period. […]

Row | melting point [°C] | Structure (SMILES) | painful symptoms [1] | degree of pain experienced [2]
1 |  | CCCc1nn(C)c2c(=O)[nH]c(-c3cc(S(=O)(=O)N4CCN(C)CC4)ccc3OCC)nc12 [sildenafil, 5-[2-ethoxy-5-(4-methyl-1-piperazinylsulphonyl)phenyl]-1-methyl-3-n-propyl-1,6-dihydro-7H-pyrazolo[4,3-d]pyrimidin-7-one] | improvement in painful symptoms | reduction in the degree of pain experienced in a number of patients
2 | 162.8 to 163.6 | CCCOc1ncc(C(C)=O)cc1-c1nc2c(CC)n(C3CN(C(C)C)C3)nc2c(=O)[nH]1 [Example 4, 5-(5-Acetyl-2-propoxy-3-pyridinyl)-3-ethyl-2-(1-isopropyl-3-azetidinyl)-2,6-dihydro-7H-pyrazolo[4,3-d]pyrimidin-7-one] |  | 

Reference: US20030162782A1, “Treatment of neuropathy” (priority 1999, published 2003)
